Assay results taken from the supplement of paper PMC10307832.

Assays:
Experiment in all cases: relative viability (nuclei count vs DMSO), 5 days (fraction); higher = more cells survive
GSK126 + Foretinib = compound: CC[C@H](C)N1C=C(C2=C(C=C(C=C21)C3=CN=C(C=C3)N4CCNCC4)C(=O)NCC5=C(C=C(NC5=O)C)C)C [GSK126] + COc1cc2c(Oc3ccc(NC(=O)C4(C(=O)Nc5ccc(F)cc5)CC4)cc3F)ccnc2cc1OCCCN1CCOCC1 [Foretinib] (partner 0.25 µM)
Method in brief: (§1)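 Lung cancer cell lines were pin-tool dosed in 1536-well plates on the day after seeding, with either a lone drug or a fixed anchor-drug dose plus five library-drug doses (not always all listed) in √10 steps. Nuclei were counted on 4× images after 5 days. Relative viability is the ratio of treated-well to vehicle-well nuclei counts, with each value a median of duplicate plates.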

Carboplatin + Foretinib = compound: C1CC(C1)(C(=O)O)C(=O)O.[NH2-].[NH2-].[Pt+2] [Carboplatin] + COc1cc2c(Oc3ccc(NC(=O)C4(C(=O)Nc5ccc(F)cc5)CC4)cc3F)ccnc2cc1OCCCN1CCOCC1 [Foretinib] (partner 0.25 µM)
Method in brief: as §1

GSK126 + Luminespib = compound: CC[C@H](C)N1C=C(C2=C(C=C(C=C21)C3=CN=C(C=C3)N4CCNCC4)C(=O)NCC5=C(C=C(NC5=O)C)C)C [GSK126] + CCNC(=O)c1noc(-c2cc(C(C)C)c(O)cc2O)c1-c1ccc(CN2CCOCC2)cc1 [Luminespib] (partner 0.01 µM)
Method in brief: as §1

MLN4924 + AZD7762 = compound: NS(=O)(=O)OC[C@@H]1C[C@@H](n2ccc3c(N[C@H]4CCc5ccccc54)ncnc32)C[C@@H]1O [MLN4924] + NC(=O)Nc1cc(-c2cccc(F)c2)sc1C(=O)N[C@H]1CCCNC1 [AZD7762] (partner 0.2 µM)
Method in brief: as §1

NCI-H460
relative viability (GSK126 + Foretinib; first compound 0.08 µM): 1.04 | relative viability (GSK126 + Foretinib; first compound 0.253 µM): 0.998 | relative viability (GSK126 + Foretinib; first compound 0.8 µM): 0.977 | relative viability (GSK126 + Foretinib; first compound 2.53 µM): 0.997 | relative viability (GSK126 + Foretinib; first compound 8 µM): 1.06 | relative viability (Carboplatin + Foretinib; first compound 0.08 µM): 0.98 | relative viability (Carboplatin + Foretinib; first compound 0.253 µM): 1.03 | relative viability (Carboplatin + Foretinib; first compound 0.8 µM): 0.968 | relative viability (Carboplatin + Foretinib; first compound 2.53 µM): 0.716 | relative viability (Carboplatin + Foretinib; first compound 8 µM): 0.322 | relative viability (GSK126 + Luminespib; first compound 0.08 µM): 0.0467 | relative viability (GSK126 + Luminespib; first compound 0.253 µM): 0.0392 | relative viability (GSK126 + Luminespib; first compound 0.8 µM): 0.0346 | relative viability (GSK126 + Luminespib; first compound 2.53 µM): 0.0287 | relative viability (GSK126 + Luminespib; first compound 8 µM): 0.0416 | relative viability (MLN4924 + AZD7762; first compound 0.04 µM): 0.575 | relative viability (MLN4924 + AZD7762; first compound 0.1265 µM): 0.772 | relative viability (MLN4924 + AZD7762; first compound 0.4 µM): 0.621 | relative viability (MLN4924 + AZD7762; first compound 1.265 µM): 0.206 | relative viability (MLN4924 + AZD7762; first compound 4 µM): 0.0543

NCI-H838
relative viability (GSK126 + Foretinib; first compound 0.08 µM): 1.1 | relative viability (GSK126 + Foretinib; first compound 0.253 µM): 1.07 | relative viability (GSK126 + Foretinib; first compound 0.8 µM): 0.929 | relative viability (GSK126 + Foretinib; first compound 2.53 µM): 0.992 | relative viability (GSK126 + Foretinib; first compound 8 µM): 0.954 | relative viability (Carboplatin + Foretinib; first compound 0.08 µM): 1.16 | relative viability (Carboplatin + Foretinib; first compound 0.253 µM): 1.06 | relative viability (Carboplatin + Foretinib; first compound 0.8 µM): 0.934 | relative viability (Carboplatin + Foretinib; first compound 2.53 µM): 0.931 | relative viability (Carboplatin + Foretinib; first compound 8 µM): 0.669 | relative viability (GSK126 + Luminespib; first compound 0.08 µM): 0.39 | relative viability (GSK126 + Luminespib; first compound 0.253 µM): 0.319 | relative viability (GSK126 + Luminespib; first compound 0.8 µM): 0.357 | relative viability (GSK126 + Luminespib; first compound 2.53 µM): 0.302 | relative viability (GSK126 + Luminespib; first compound 8 µM): 0.34 | relative viability (MLN4924 + AZD7762; first compound 0.04 µM): 0.916 | relative viability (MLN4924 + AZD7762; first compound 0.1265 µM): 0.82 | relative viability (MLN4924 + AZD7762; first compound 0.4 µM): 0.737 | relative viability (MLN4924 + AZD7762; first compound 1.265 µM): 0.589 | relative viability (MLN4924 + AZD7762; first compound 4 µM): 0.618

NCI-H2347
relative viability (GSK126 + Foretinib; first compound 0.08 µM): 0.842 | relative viability (GSK126 + Foretinib; first compound 0.253 µM): 0.861 | relative viability (GSK126 + Foretinib; first compound 0.8 µM): 1.07 | relative viability (GSK126 + Foretinib; first compound 2.53 µM): 1.25 | relative viability (GSK126 + Foretinib; first compound 8 µM): 1.35 | relative viability (Carboplatin + Foretinib; first compound 0.08 µM): 1.51 | relative viability (Carboplatin + Foretinib; first compound 0.253 µM): 1.01 | relative viability (Carboplatin + Foretinib; first compound 0.8 µM): 1.14 | relative viability (Carboplatin + Foretinib; first compound 2.53 µM): 1.23 | relative viability (Carboplatin + Foretinib; first compound 8 µM): 0.788 | relative viability (GSK126 + Luminespib; first compound 0.08 µM): 0.757 | relative viability (GSK126 + Luminespib; first compound 0.253 µM): 0.701 | relative viability (GSK126 + Luminespib; first compound 0.8 µM): 0.308 | relative viability (GSK126 + Luminespib; first compound 2.53 µM): 0.392 | relative viability (GSK126 + Luminespib; first compound 8 µM): 0.267 | relative viability (MLN4924 + AZD7762; first compound 0.04 µM): 0.904 | relative viability (MLN4924 + AZD7762; first compound 0.1265 µM): 0.834 | relative viability (MLN4924 + AZD7762; first compound 0.4 µM): 0.536 | relative viability (MLN4924 + AZD7762; first compound 1.265 µM): 0.252 | relative viability (MLN4924 + AZD7762; first compound 4 µM): 0.242

NCI-H1395
relative viability (GSK126 + Foretinib; first compound 0.08 µM): 1.17 | relative viability (GSK126 + Foretinib; first compound 0.253 µM): 0.878 | relative viability (GSK126 + Foretinib; first compound 0.8 µM): 1.04 | relative viability (GSK126 + Foretinib; first compound 2.53 µM): 1.07 | relative viability (GSK126 + Foretinib; first compound 8 µM): 0.785 | relative viability (Carboplatin + Foretinib; first compound 0.08 µM): 1.03 | relative viability (Carboplatin + Foretinib; first compound 0.253 µM): 1.03 | relative viability (Carboplatin + Foretinib; first compound 0.8 µM): 0.805 | relative viability (Carboplatin + Foretinib; first compound 2.53 µM): 0.709 | relative viability (Carboplatin + Foretinib; first compound 8 µM): 0.726 | relative viability (GSK126 + Luminespib; first compound 0.08 µM): 0.64 | relative viability (GSK126 + Luminespib; first compound 0.253 µM): 0.62 | relative viability (GSK126 + Luminespib; first compound 0.8 µM): 0.606 | relative viability (GSK126 + Luminespib; first compound 2.53 µM): 0.689 | relative viability (GSK126 + Luminespib; first compound 8 µM): 0.545 | relative viability (MLN4924 + AZD7762; first compound 0.04 µM): 0.493 | relative viability (MLN4924 + AZD7762; first compound 0.1265 µM): 0.416 | relative viability (MLN4924 + AZD7762; first compound 0.4 µM): 0.383 | relative viability (MLN4924 + AZD7762; first compound 1.265 µM): 0.408 | relative viability (MLN4924 + AZD7762; first compound 4 µM): 0.331

NCI-H647
relative viability (GSK126 + Foretinib; first compound 0.08 µM): 1.21 | relative viability (GSK126 + Foretinib; first compound 0.253 µM): 1.23 | relative viability (GSK126 + Foretinib; first compound 0.8 µM): 0.971 | relative viability (GSK126 + Foretinib; first compound 2.53 µM): 1.45 | relative viability (GSK126 + Foretinib; first compound 8 µM): 1.26 | relative viability (Carboplatin + Foretinib; first compound 0.08 µM): 1.15 | relative viability (Carboplatin + Foretinib; first compound 0.253 µM): 1.24 | relative viability (Carboplatin + Foretinib; first compound 0.8 µM): 1.13 | relative viability (Carboplatin + Foretinib; first compound 2.53 µM): 1.17 | relative viability (Carboplatin + Foretinib; first compound 8 µM): 0.84 | relative viability (GSK126 + Luminespib; first compound 0.08 µM): 0.358 | relative viability (GSK126 + Luminespib; first compound 0.253 µM): 0.193 | relative viability (GSK126 + Luminespib; first compound 0.8 µM): 0.144 | relative viability (GSK126 + Luminespib; first compound 2.53 µM): 0.202 | relative viability (GSK126 + Luminespib; first compound 8 µM): 0.124 | relative viability (MLN4924 + AZD7762; first compound 0.04 µM): 0.412 | relative viability (MLN4924 + AZD7762; first compound 0.1265 µM): 0.334 | relative viability (MLN4924 + AZD7762; first compound 0.4 µM): 0.0972 | relative viability (MLN4924 + AZD7762; first compound 1.265 µM): 0.0222 | relative viability (MLN4924 + AZD7762; first compound 4 µM): 0.0279
